Measurements from the CheMixHub viscosity set.

Experiment: xn = mol fraction of the nth substance listed

CCOC(=O)CCl + Cc1cc(C)cc(C)c1
viscosity [mPa·s], 101.3 kPa
Conditions	x1 = 0.1123	x1 = 0.2035	x1 = 0.2999	x1 = 0.4019	x1 = 0.4987	x1 = 0.5997	x1 = 0.6963	x1 = 0.7974	x1 = 0.8954
298.15 K	0.693	0.712	0.745	0.775	0.811	0.853	0.902	0.964	1.023
303.15 K	0.653	0.669	0.698	0.725	0.759	0.798	0.841	0.899	0.949
308.15 K	0.612	0.627	0.652	0.677	0.708	0.741	0.779	0.829	0.874

COC(=O)c1ccccc1 + c1ccccc1
viscosity [mPa·s], 101 kPa
Conditions	x1 = 0.0773	x1 = 0.1534	x1 = 0.2362	x1 = 0.3252	x1 = 0.4217	x1 = 0.5176	x1 = 0.6241	x1 = 0.7379	x1 = 0.8662
303.15 K	0.613	0.675	0.75	0.835	0.929	1.043	1.165	1.305	1.482
313.15 K	0.543	0.588	0.645	0.71	0.784	0.874	0.985	1.107	1.245

CNC=O + CC(=O)O
viscosity [mPa·s], 100 kPa
Conditions	x1 = 0.1097	x1 = 0.183	x1 = 0.2628	x1 = 0.3502	x1 = 0.4802	x1 = 0.5897	x1 = 0.6693	x1 = 0.7549	x1 = 0.8961
303.15 K	1.044	1.086	1.132	1.183	1.259	1.324	1.372	1.426	1.517
308.15 K	0.9723	1.011	1.054	1.1	1.169	1.228	1.272	1.32	1.402
313.15 K	0.9175	0.9534	0.992	1.033	1.095	1.148	1.187	1.229	1.301
318.15 K	0.8728	0.9059	0.9409	0.978	1.033	1.08	1.114	1.151	1.213

CC(C)OCCO + CO
298.15 K, 101.33 kPa
Conditions	viscosity [mPa·s]
x1 = 0.012	0.569
x1 = 0.0276	0.602
x1 = 0.05	0.637
x1 = 0.0732	0.684
x1 = 0.1063	0.749
x1 = 0.1319	0.795
x1 = 0.1558	0.842
x1 = 0.1871	0.897
x1 = 0.2119	0.946
x1 = 0.2575	1.036
x1 = 0.2683	1.056
x1 = 0.3161	1.145
x1 = 0.3643	1.235
x1 = 0.412	1.324
x1 = 0.4685	1.415
x1 = 0.5152	1.485
x1 = 0.5447	1.529
x1 = 0.6149	1.624
x1 = 0.6869	1.719
x1 = 0.7416	1.789
x1 = 0.7775	1.832
x1 = 0.8335	1.912
x1 = 0.8955	1.975
x1 = 0.9189	2.003
x1 = 0.9415	2.032
x1 = 0.9701	2.064

CC(C)OCCO + CCCCCO
298.15 K, 101.33 kPa
Conditions	viscosity [mPa·s]
x1 = 0.0159	3.466
x1 = 0.0312	3.405
x1 = 0.0461	3.354
x1 = 0.0653	3.292
x1 = 0.0867	3.234
x1 = 0.1097	3.16
x1 = 0.137	3.099
x1 = 0.1627	3.029
x1 = 0.1931	2.952
x1 = 0.2267	2.881
x1 = 0.2585	2.819
x1 = 0.2966	2.748
x1 = 0.3417	2.677
x1 = 0.3843	2.61
x1 = 0.4446	2.526
x1 = 0.4848	2.473
x1 = 0.4956	2.461
x1 = 0.5246	2.432
x1 = 0.5561	2.397
x1 = 0.6012	2.357
x1 = 0.6643	2.297
x1 = 0.7168	2.261
x1 = 0.7741	2.218
x1 = 0.8198	2.191
x1 = 0.8573	2.167
x1 = 0.8964	2.142
x1 = 0.9259	2.133
x1 = 0.9558	2.116
x1 = 0.9775	2.11

CCOCCOCCOCC + ClCCl
298.15 K, 101 kPa
Conditions	viscosity [mPa·s]
x1 = 0.0052	0.409
x1 = 0.0103	0.413
x1 = 0.0277	0.449
x1 = 0.0559	0.492
x1 = 0.0751	0.516
x1 = 0.1056	0.576
x1 = 0.1326	0.622
x1 = 0.1807	0.699
x1 = 0.2427	0.784
x1 = 0.2846	0.843
x1 = 0.3028	0.87
x1 = 0.3207	0.893
x1 = 0.3629	0.948
x1 = 0.4227	1.006
x1 = 0.445	1.031
x1 = 0.5119	1.096
x1 = 0.5582	1.131
x1 = 0.583	1.148
x1 = 0.6108	1.172
x1 = 0.6567	1.192
x1 = 0.7048	1.217
x1 = 0.7501	1.233
x1 = 0.803	1.246
x1 = 0.8457	1.264
x1 = 0.9124	1.268
x1 = 0.9488	1.269
x1 = 0.9709	1.27

CC(C)c1cc(C(C)C)cc(C(C)C)c1 + CCCCCCCCCCCC
viscosity [mPa·s], 102 kPa
Conditions	x1 = 0.0997	x1 = 0.2002	x1 = 0.3009	x1 = 0.4002	x1 = 0.5003	x1 = 0.6001	x1 = 0.7001	x1 = 0.8002	x1 = 0.8999
293.15 K	1.57	1.67	1.8	1.94	2.14	2.37	2.67	3.05	3.51
303.15 K	1.31	1.39	1.48	1.59	1.73	1.89	2.09	2.35	2.66
313.15 K	1.11	1.17	1.24	1.32	1.42	1.54	1.69	1.86	2.08
323.15 K	0.956	1	1.05	1.12	1.19	1.28	1.39	1.52	1.67

COC(=O)c1ccccc1 + C1CCCCC1
101 kPa, x1 = 0.5996
Conditions	viscosity [mPa·s]
303.15 K	0.9344
308.15 K	0.8826
313.15 K	0.8403

C[N+]1(CC2CO2)CCCC1=O.[Cl-] (configuration not stated) + CCC(=O)O
viscosity [mPa·s], 101 kPa
Conditions	293.15 K	298.15 K	303.15 K	308.15 K	313.15 K
x1 = 0.0325	1.305	1.209	1.12	1.041	0.971
x1 = 0.0638	1.577	1.45	1.335	1.233	1.144
x1 = 0.1089	1.836	1.673	1.533	1.41	1.301
x1 = 0.205	2.333	2.104	1.909	1.738	1.592
x1 = 0.3036	2.544	2.285	2.064	1.876	1.712
x1 = 0.4076	2.537	2.278	2.059	1.87	1.707
x1 = 0.5049	2.288	2.069	1.882	1.718	1.578
x1 = 0.6079	2.088	1.895	1.729	1.586	1.462
x1 = 0.7037	1.935	1.763	1.613	1.485	1.372
x1 = 0.8065	1.808	1.65	1.516	1.399	1.296
x1 = 0.9028	1.643	1.507	1.39	1.286	1.194

C[N+](C)(C)CCO.O=C([O-])c1ccccn1 + O
300 K, 100 kPa
Conditions	viscosity [mPa·s]
x2 = 0.5	232.8
x2 = 0.68	35.3
x2 = 0.81	16.4

C[N+]1(CC2CO2)CCCC1=O.[Cl-] (configuration not stated) + CC(=O)O
viscosity [mPa·s], 101 kPa
Conditions	293.15 K	298.15 K	303.15 K	308.15 K	313.15 K
x1 = 0.0373	1.592	1.448	1.322	1.213	1.115
x1 = 0.0644	1.83	1.652	1.5	1.371	1.256
x1 = 0.1087	2.234	2	1.802	1.632	1.489
x1 = 0.2041	2.728	2.425	2.172	1.959	1.776
x1 = 0.3022	2.803	2.492	2.235	2.018	1.831
x1 = 0.4053	2.587	2.314	2.087	1.892	1.723
x1 = 0.5054	2.324	2.095	1.9	1.731	1.586
x1 = 0.605	2.107	1.908	1.738	1.591	1.465
x1 = 0.7073	1.919	1.746	1.597	1.469	1.356
x1 = 0.8065	1.817	1.657	1.521	1.402	1.297
x1 = 0.9047	1.752	1.602	1.473	1.36	1.261

CCOC(=O)CCl + CCCCCCCCCCCC
viscosity [mPa·s], 101.33 kPa
Conditions	x1 = 0.0961	x1 = 0.2041	x1 = 0.3012	x1 = 0.4005	x1 = 0.5029	x1 = 0.6026	x1 = 0.7029	x1 = 0.804	x1 = 0.9017
298.15 K	1.25	1.197	1.159	1.14	1.127	1.116	1.105	1.101	1.099
303.15 K	1.149	1.094	1.062	1.041	1.027	1.029	1.015	0.994	0.985
308.15 K	1.054	1.019	0.979	0.96	0.946	0.94	0.93	0.927	0.929
